The values below come from patent US20240252461A1, “COMPOSITIONS AND METHODS FOR TREATMENT OF DEMYELINATION” (priority 2018, published 2024).

Bounds are passed on as bounds.

A short description of data set [1]: Blood-brain barrier penetration: DFO concentration in rat brain after IP injection. In kind it is in vivo. The settings on record: for fraction of DFO that infiltrated the brain / DFO (mg/g organ) / DFO (mg/whole organ): SD rats; for fraction of DFO that infiltrated the brain: 90 min; for DFO (mg/g organ): brain; for DFO (mg/whole organ): whole brain. The method, then: In this study, the ability of the Zn-DFO complex to infiltrate into the brain was examined. Rats were injected intraperitoneally (IP) with increasing amounts of DFO alone or Zn-DFO complex, and the concentration of DFO was measured in their brains, thus monitoring their infiltrability.
(§1) In particular, male Sprague-Dawley (SD) rats (300 g average body weight, 3 animals per group) were injected IP with DFO (250, 500, or 1000 mg/kg body weight). For comparison, Zn-DFO solution in freshly prepared saline was injected IP (250, 500, or 1000 mg/kg body weight, which are equivalent to 221, 442, or 883 mg DFO/kg body weight, respectively).
(§2) The behavior of the rats was monitored for 90 min following the injection. Then, the animals were euthanized using an injection of ketamine-xylazine, and their hearts, livers, left kidneys, and brains were excised and weighted. Brain samples (300 mg tissue) were washed homogenized in 3 ml Lysis buffer. Tissue homogenates were incubated at 110° C. for 5 min and centrifuged for 5 min at 14,500 relative centrifugal force (RCF). An equal volume of 40% trichloroacetic acid (TCA) solution was added, forming a solution containing 20% TCA, which was vortexed and centrifuged again. The supernatants were transferred into cuvettes, and DFO concentration was spectrophotometrically measured, after addition of 10 mM of ferric iron solution (as a weak complex of iron, ferric-nitrilo-triacetate, at pH=7.4), and scanning the range of λ=380−580 nm. The final concentration was calculated according to the Beer-Lambert law, using εDFO=2460 M^−1cm^−1: the total amount of DFO per gram tissue and per whole brain were calculated.

The nature of data set [2]: Behavior of rats monitored for 90 min following IP injection. Format: in vivo, rat. To be noted: the three doses (250, 500, 1000 mg/kg IP). As for the experimental part:
as §1, §2

Data set [3] has as its system Experimental Autoimmune Encephalomyelitis (EAE) model. The data set can be described thus: Murine Experimental Autoimmune Encephalomyelitis (EAE) model of multiple sclerosis. In kind it is in vivo, C57BL/6 mice. The settings on record: glatiramer acetate 200 μg SC on day 0, alone. As for the experimental part: In this study, the therapeutic effect of treatment with glatiramer acetate (Copaxone®) alone or in combination with Zn-DFO on multiple sclerosis (MS) is tested, using the murine Experimental Autoimmune Encephalomyelitis (EAE) model.
EAE is induced in 8-week-old female C57BL/6 mice by subcutaneous (SC) injection of 125 μg of myelin oligodendrocyte glycoprotein 35-55 peptide (MOG35-55) emulsified in complete Freund's adjuvant (CFA) containing 5 mg/ml heat-killed Mycobacterium tuberculosis into the left para-lumbar region. Immediately thereafter, and again at 48 h, the mice are inoculated intraperitoneal (IP) with 0.5 ml of pertussis toxin (400 ng). Seven days later, the mice are further challenged with an additional injection of MOG35-55 peptide in CFA injected into the right para-lumbar region.
Mice are treated with SC injection of 200 (μg glatiramer acetate (Copaxone®) per animal in mannitol 4% emulsion on day 0. Part of the animals are continued to be treated with Zn-DFO as IP injections, 2 mg/kg or 6 mg/kg, thrice a week till the end of the experiment (Day 28). Two additional groups of mice are treated with Zn-DFO analogously, but without the preceding injection with glatiramer acetate. The severity of the disease is assessed using the scale shown in Table 2 (Bittner et al. 2014).

The subject of data set [4] is MS. The settings on record: cited from earlier work.
The mark [5] stands for this setting: 90 min after IP injection of 250 mg/kg.
Where [6] appears, read: 90 min after IP injection of 500 mg/kg.
The mark [7] stands for this setting: 90 min after IP injection of 1000 mg/kg.

Regarding `CC(=O)N(O)CCCCCNC(=O)CCC(=O)N(O)CCCCCNC(=O)CCC(=O)N(O)CCCCCN` [DFO, N′-[5-(acetyl-hydroxy-amino)pentyl]-N-[5-[3-(5-aminopentyl-hydroxy-carbamoyl)propanoylamino]pentyl]-N-hydroxy-butane diamide], the “fraction of DFO that infiltrated the brain” value in data set [1] (IP 250 mg/kg) is <0.0015%; in data set [1] (IP 500 mg/kg), <0.0015%; in data set [1] (IP 1000 mg/kg) it was 0.002%. In addition, the “DFO (mg/g organ)” value in data set [1] (setting [5]) is given as <0.005 mg/g organ; in data set [1] (setting [6]), <0.005 mg/g organ; in data set [1] (setting [7]) it was 0.008 ± 0.004 mg/g organ. The “fraction of DFO that had infiltrated into the brain” value in data set [1] (corresponding doses (250, 500, 1000 mg/kg IP), limited sensitivity of the instrument) was ≤ 0.002%. Besides, the “DFO (mg/whole organ)” value in data set [1] (setting [5]) is reported as <0.005 mg/whole organ; in data set [1] (setting [6]), <0.005 mg/whole organ; in data set [1] (setting [7]), 0.019 ± 0.008 mg/whole organ. Further, the “rats' behavior after injection” value in data set [2] is on record as “no changes in rats' behavior”.
With glatiramer acetate, in data set [3], the “day on which peak clinical score is reached” value is 17 days and the “onset of the disease” value is 14 days. Also, the “effect on the main outcome measures in MS (disease progression)” value in data set [4] (La Mantia et al., 2010) was “did not show any beneficial effect”. For the same compound, in data set [4] (relapsing-remitting MS, Hassan-Smith et al., 2011), the reduction of relapses entry is on record as “approximately 30%”.
